Laboratory results from article PMC12494099, “Discovery and Characterization of Novel IKZF1/3 Glue Degraders against Multiple Hematological Cancer Cell Lines” (Oncology Research, 2025).

Key:
Type in all cases: cell-based
[1] = tested on: NCI-H929 (MM), MV-4-11(AML), and Ocl-Ly3 (DLBCL) cells; test: Cell viability (CCK-8) assay, statements on the whole three-line panel; conditions: for antiproliferative activity (in words): compared with the prototypical IMiDs
Method: Multiple cell lines (NCI-H929, OPM-2, U937, Ocl-Ly3, RPMI-8226, MOLM-13, Skm-1, MUTZ-1, SU-DHL-4, TMD8, U2932, WSU-DLCL-2, MV-4-11 and KG-1 cells) were plated into 96-well plates. The plated at a density of 15,000 cells per well, and each well contained 100 µL of medium. Subsequently, different compounds (MGD-AX, MGD-BX, MGD-CX) were added to each well. These compounds’ concentrations were set at 0, 0.01, 0.033, 0.1, 0.33, 1, 3.3, 10 and 33 μM, and the cells were incubated with the compounds for 96 h. To evaluate the antiproliferative effects of these compounds, the Cell Counting Kit-8 (CCK-8, #CX007, Epizyme, Shanghai, China) was used. All procedures were carried out in strict accordance with the manufacturer’s instructions (Dojindo Laboratories, Mamoto Ken, Japan). The half maximal inhibitory concentrations (IC50) values, which represent the concentrations of the test compounds that can inhibit 50% of cell activity, were calculated using GraphPad Prism 8.0 (GraphPad Software Inc., San Diego, CA, USA).

NCI-H929 = test: Cell viability (CCK-8) assay; conditions: Homo sapiens, NCI-H929, 96 h
Method: (§1) The plated at a density of 15,000 cells per well, and each well contained 100 µL of medium. Subsequently, different compounds (MGD-AX, MGD-BX, MGD-CX) were added to each well. […] To evaluate the antiproliferative effects of these compounds, the Cell Counting Kit-8 (CCK-8, #CX007, Epizyme, Shanghai, China) was used. All procedures were carried out in strict accordance with the manufacturer’s instructions (Dojindo Laboratories, Mamoto Ken, Japan).

Ocl-Ly3 = test: Cell viability (CCK-8) assay; conditions: 96 h, CCK-8
Method: as §1

MV-4-11 [2] = test: Cell viability (CCK-8) assay; conditions: Homo sapiens, 96 h, CCK-8
Method: as §1

IKZF1-HiBiT = molecular target: T1, IKZF1-HiBiT (Homo sapiens, UniProt Q13422+Q96SW2); test: Quantitative degradation assay using the HiBiT system (HEK293T); conditions: HEK-293T; HEK293T IKZF1-HiBiT, 24 h; read-out: maximal degradation (Dmax) on IKZF1
T1 construct: expressed in transfected cells; host or cells: HEK293T
T1 sequence (Q13422 whole entry): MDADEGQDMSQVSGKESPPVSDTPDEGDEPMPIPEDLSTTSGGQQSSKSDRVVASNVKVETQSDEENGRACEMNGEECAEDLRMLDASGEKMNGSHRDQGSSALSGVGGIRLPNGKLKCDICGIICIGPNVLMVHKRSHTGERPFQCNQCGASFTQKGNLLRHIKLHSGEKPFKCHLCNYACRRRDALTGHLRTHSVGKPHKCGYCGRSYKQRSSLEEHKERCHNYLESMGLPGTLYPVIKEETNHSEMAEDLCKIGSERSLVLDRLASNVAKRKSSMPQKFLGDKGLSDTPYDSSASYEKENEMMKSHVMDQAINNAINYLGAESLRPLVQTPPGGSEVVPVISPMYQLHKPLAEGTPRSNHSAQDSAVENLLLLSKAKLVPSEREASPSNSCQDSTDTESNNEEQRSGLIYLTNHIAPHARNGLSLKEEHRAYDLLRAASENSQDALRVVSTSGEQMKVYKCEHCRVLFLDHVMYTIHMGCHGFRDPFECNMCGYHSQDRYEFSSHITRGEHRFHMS
T1 sequence (Q96SW2 whole entry): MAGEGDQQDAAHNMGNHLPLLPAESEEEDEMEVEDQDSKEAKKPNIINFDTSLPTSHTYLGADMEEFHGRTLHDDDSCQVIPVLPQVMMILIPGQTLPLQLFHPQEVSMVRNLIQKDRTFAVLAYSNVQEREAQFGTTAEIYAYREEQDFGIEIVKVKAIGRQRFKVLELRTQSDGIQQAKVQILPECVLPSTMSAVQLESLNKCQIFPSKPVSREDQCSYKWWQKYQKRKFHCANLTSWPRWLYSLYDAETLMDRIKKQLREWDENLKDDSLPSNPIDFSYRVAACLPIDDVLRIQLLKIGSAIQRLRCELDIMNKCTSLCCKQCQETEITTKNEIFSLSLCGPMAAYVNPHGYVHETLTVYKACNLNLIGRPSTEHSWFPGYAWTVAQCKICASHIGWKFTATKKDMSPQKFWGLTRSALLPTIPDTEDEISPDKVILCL
T1 sequence (Q16531 whole entry partner): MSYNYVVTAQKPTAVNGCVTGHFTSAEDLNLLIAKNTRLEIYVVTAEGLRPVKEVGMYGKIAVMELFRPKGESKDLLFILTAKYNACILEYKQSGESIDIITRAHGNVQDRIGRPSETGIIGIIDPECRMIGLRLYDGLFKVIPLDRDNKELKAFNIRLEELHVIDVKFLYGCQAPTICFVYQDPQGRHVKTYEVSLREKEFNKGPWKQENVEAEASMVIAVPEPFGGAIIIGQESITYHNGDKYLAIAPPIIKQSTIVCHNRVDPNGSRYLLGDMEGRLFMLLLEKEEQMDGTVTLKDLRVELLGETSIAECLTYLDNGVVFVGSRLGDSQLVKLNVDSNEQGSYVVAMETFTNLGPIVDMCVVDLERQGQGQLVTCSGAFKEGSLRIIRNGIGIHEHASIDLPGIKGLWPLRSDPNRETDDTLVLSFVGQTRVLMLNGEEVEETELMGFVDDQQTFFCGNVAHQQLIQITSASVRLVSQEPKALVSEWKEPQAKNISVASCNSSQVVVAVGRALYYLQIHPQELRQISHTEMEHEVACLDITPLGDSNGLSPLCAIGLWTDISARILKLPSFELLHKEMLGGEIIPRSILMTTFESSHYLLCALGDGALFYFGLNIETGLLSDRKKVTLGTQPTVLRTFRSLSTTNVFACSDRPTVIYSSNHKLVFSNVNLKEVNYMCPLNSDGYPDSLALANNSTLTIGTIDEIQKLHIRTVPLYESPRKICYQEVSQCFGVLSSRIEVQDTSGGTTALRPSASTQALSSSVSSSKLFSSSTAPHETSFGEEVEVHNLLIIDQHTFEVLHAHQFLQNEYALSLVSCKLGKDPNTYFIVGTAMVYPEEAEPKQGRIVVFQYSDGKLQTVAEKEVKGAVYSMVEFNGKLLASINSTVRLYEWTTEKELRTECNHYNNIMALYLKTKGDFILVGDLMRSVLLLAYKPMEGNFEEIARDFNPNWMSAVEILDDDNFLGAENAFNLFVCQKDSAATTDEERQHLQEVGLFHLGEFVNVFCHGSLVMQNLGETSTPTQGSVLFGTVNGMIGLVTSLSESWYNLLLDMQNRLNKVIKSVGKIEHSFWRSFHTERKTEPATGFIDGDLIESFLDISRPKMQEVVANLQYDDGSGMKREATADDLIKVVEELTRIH
Method: (§2) An in vitro quantitative degradation assay utilizing the HiBiT system was carried out as previously described. To evaluate the degradation of IKZF1, IKZF2, and IKZF3 proteins, HEK293T cell lines stably expressing IKZF1-, IKZF2-, IKZF3-, GSPT1- or CK1α-HiBiT were cultured in 96-well plates at 12,000 cells per well. […] After the treatment, cell lysis was carried out using the Nano-Glo HiBiT Lytic Detection System (#N3040, Promega). All lysis operations were strictly carried out according to the manufacturer’s specific protocol. Then, the SpectraMax iD3 instrument (Molecular Devices, San Jose, CA, USA) was used to detect the luminescent signals released by the HiBiT-tagged neosubstrates.

IKZF3-HiBiT = molecular target: T2, IKZF3-HiBiT (Homo sapiens, UniProt Q96SW2+Q9UKT9); test: as above; conditions: HEK-293T; HEK293T IKZF3-HiBiT, 24 h; read-out: maximal degradation (Dmax) on IKZF3
T2 construct: expressed in transfected cells; host or cells: HEK293T
T2 sequence (Q9UKT9 whole entry): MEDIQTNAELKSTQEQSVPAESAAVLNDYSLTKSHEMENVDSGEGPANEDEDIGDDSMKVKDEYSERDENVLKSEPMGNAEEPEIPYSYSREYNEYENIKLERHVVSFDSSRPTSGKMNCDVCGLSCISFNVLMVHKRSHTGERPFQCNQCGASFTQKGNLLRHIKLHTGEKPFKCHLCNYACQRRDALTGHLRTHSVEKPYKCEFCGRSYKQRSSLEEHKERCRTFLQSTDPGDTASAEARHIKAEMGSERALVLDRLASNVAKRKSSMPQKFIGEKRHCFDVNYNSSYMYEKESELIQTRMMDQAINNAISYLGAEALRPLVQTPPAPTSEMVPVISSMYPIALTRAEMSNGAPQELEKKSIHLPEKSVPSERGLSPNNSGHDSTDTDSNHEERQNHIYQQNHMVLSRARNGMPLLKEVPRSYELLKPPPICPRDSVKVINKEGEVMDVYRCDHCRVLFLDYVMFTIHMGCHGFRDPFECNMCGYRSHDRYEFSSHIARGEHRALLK
T2 sequence (Q96SW2 whole entry): as the sequence (Q96SW2 whole entry) above
T2 sequence (Q16531 whole entry partner): as the sequence (Q16531 whole entry partner) above
Method: as §2

MV-4-11 [3] = test: Cell apoptosis assay (Annexin V flow cytometry); conditions: MV-4-11, 10 µM
Method: (§3) Cells (NCI-H929 and MV-4-11) were seeded at a density of 1 × 10^6 cells per well into 6-well dishes. […] Apoptosis was assessed using an Annexin V-FITC kit (#ab14085; Abcam, MA, USA) on a FACS Calibur Flow Cytometer (Becton Dickinson, Franklin Lakes, NJ, USA). For cell cycle analysis, cells were fixed in 75% ethanol (−20°C/overnight), washed with PBS (pH = 7.2–7.4, 1×), treated with RNase A (0.2 mg/mL, 37°C/30 min), stained with PI (10 μg/mL), and analyzed on the same instrument. Finally, the samples were analyzed using a FACS Calibur Flow Cytometer.

[4] = tested on: control vector NCI-H929 cells; test: Cell apoptosis assay, control vector cells
Method: […] NCI-H929 and MV-4-11 cells were seeded at a density of 1 × 10^6 cells/well in 6-well tissue culture-treated plates. According to the manufacturer’s protocol (Santa Cruz Biotechnology, Inc, Dallas, TX, USA), CRBN CRISPR/Cas9 knockout Plasmid (#sc-412142), CRBN HDR plasmid (#sc-412142-HDR), UltraCruz® Transfection Reagent (#sc-395739) were pre-mixed in Plasmid Transfection Medium (#sc-108062) at a 1:1:2 mass ratio, and cells were transiently transfected in a 37°C, 5% CO2 incubator. After 72 h of infection, the medium was replaced with complete medium containing 3 μg/mL puromycin for 5–7 days. On day 7, GFP-positive cells were sorted as single cells into 96-well plates. Isolated single-cell clones were screened via western blot analysis, using wild-type NCI-H929 or MV-4-11 cells as positive controls.
as §3

U2932 = test: Cell viability (CCK-8) assay; conditions: Homo sapiens, U2932, 96 h, read-out: IC50 (μM) U2932
Method: as §1

MOLM-13 = test: Cell viability (CCK-8) assay; conditions: Homo sapiens, MOLM-13, 96 h, read-out: IC50 (μM) MOLM-13
Method: as §1

MUTZ-1 = test: Cell viability (CCK-8) assay; conditions: 96 h, read-out: IC50 (μM) MUTZ-1
Method: as §1

Skm-1 = test: Cell viability (CCK-8) assay; conditions: Homo sapiens, SKM-1, 96 h, read-out: IC50 (μM) Skm-1
Method: as §1

U937 = test: Cell viability (CCK-8) assay; conditions: Homo sapiens, U-937, 96 h, read-out: IC50 (μM) U937
Method: as §1

SU-DHL-4 = test: Cell viability (CCK-8) assay; conditions: Homo sapiens, SU-DHL-4, 96 h, read-out: IC50 (μM) SU-DHL-4
Method: as §1

OPM-2 = test: Cell viability (CCK-8) assay; conditions: Homo sapiens, OPM-2, 96 h, read-out: IC50 (μM) OPM-2
Method: as §1

WSU-DLCL-2 = test: Cell viability (CCK-8) assay; conditions: Homo sapiens, WSUDLCL2, 96 h, read-out: IC50 (μM) WSU-DLCL-2
Method: as §1

TMD8 = test: Cell viability (CCK-8) assay; conditions: Homo sapiens, TMD8, 96 h, read-out: IC50 (μM) TMD8
Method: as §1

RPMI-8226 = test: Cell viability (CCK-8) assay; conditions: Homo sapiens, RPMI-8226, 96 h, read-out: IC50 (μM) RPMI-8226
Method: as §1

KG-1 = test: Cell viability (CCK-8) assay; conditions: Homo sapiens, KG-1, 96 h, read-out: IC50 (μM) KG-1
Method: as §1

SMILES	antiproliferative activity (in words) [1]	IC50 (NCI-H929) [µM]	IC50 (Ocl-Ly3) [µM]	IC50 (MV-4-11 [2]; MV4-11, 96 h) [µM]	further results
O=C1CCC(NC(=O)c2cccc(C(=O)N3CCCC3)c2)C(=O)N1 (stereo not shown) [MGD-A10, N-(2,6-dioxopiperidin-3-yl)-3-(pyrrolidine-1-carbonyl)benzamide]	mild activity	14.2 ± 1.36	> 33	8.34 ± 0.79	–
O=C1CCC(NC(=O)c2cccc(C(=O)N3CCCCC3)c2)C(=O)N1 (stereo not shown) [MGD-A11, N-(2,6-dioxopiperidin-3-yl)-3-(piperidine-1-carbonyl)benzamide]	mild activity	8.33 ± 0.8	23 ± 2.19	5.47 ± 0.52	–
CC1CCN(C(=O)c2cccc(C(=O)NC3CCC(=O)NC3=O)c2)CC1 (stereo not shown) [MGD-A12, N-(2,6-dioxopiperidin-3-yl)-3-(4-methylpiperidine-1-carbonyl)benzamide]	–	11.9 ± 1.14	15.3 ± 1.46	14.3 ± 1.36	fold reduction in potency compared with MGD-A5 ([1]; NCI-H929, MV-4-11 and Ocl-Ly3 cells): more than 3 fold
O=C1CCC(NC(=O)c2cccc(C(=O)N3CCOCC3)c2)C(=O)N1 (stereo not shown) [MGD-A14, N-(2,6-dioxopiperidin-3-yl)-3-(morpholine-4-carbonyl)benzamide]	mild activity	7.43 ± 0.71	10.6 ± 1.01	5.1 ± 0.49	–
Nc1cccc2c1C(=O)N(C1CCC(=O)NC1=O)C2=O (stereo not shown) [Pomalidomide, reference compound]	–	2.18 ± 0.21	18.3 ± 1.74	–	Dmax (IKZF1-HiBiT): 76.2%; Dmax (IKZF3-HiBiT): 69.4%; apoptosis rate (MV-4-11 [3]): 15.5%; apoptosis (in words) [4]: induced significant apoptosis; IC50 (U2932): 13.7 µM; IC50 (MOLM-13): 12.4 µM; IC50 (MUTZ-1): 17.3 µM; IC50 (Skm-1): 20.1 µM; IC50 (U937): 13.8 µM; IC50 (SU-DHL-4): 22.4 µM; IC50 (MV-4-11 [2]; MV4-11): 16.1 ± 1.54 µM; IC50 (OPM-2): 0.204 µM; IC50 (WSU-DLCL-2): 18.1 µM; IC50 (TMD8): 15.3 µM; IC50 (RPMI-8226): 5.21 µM; IC50 (KG-1): 17.2 µM
